Source: ChEMBL document CHEMBL5058643, “Data for DCP probe BI-2081” (2022)
One block for each molecule: values may come before it.

Columns and labels:
[1] = biological target: Cholecystokinin receptor type A (Homo sapiens) (UniProt P32238); test: CCKA/H Eurofins SafetyScreen44 (BI); conditions: Compound concentration 10.0 uM
[2] = biological target: 5-hydroxytryptamine receptor 2A (Homo sapiens) (UniProt P28223); test: 5HT2AH_AGON Eurofins SafetyScreen44 (BI); conditions: filed as agonist, Compound concentration 10.0 uM
[3] = biological target: T1, 5-hydroxytryptamine receptor 3A (Homo sapiens) (UniProt P46098); test: 5HT3/H Eurofins SafetyScreen44 (BI); conditions: Compound concentration 10.0 uM
T1 sequence (whole entry): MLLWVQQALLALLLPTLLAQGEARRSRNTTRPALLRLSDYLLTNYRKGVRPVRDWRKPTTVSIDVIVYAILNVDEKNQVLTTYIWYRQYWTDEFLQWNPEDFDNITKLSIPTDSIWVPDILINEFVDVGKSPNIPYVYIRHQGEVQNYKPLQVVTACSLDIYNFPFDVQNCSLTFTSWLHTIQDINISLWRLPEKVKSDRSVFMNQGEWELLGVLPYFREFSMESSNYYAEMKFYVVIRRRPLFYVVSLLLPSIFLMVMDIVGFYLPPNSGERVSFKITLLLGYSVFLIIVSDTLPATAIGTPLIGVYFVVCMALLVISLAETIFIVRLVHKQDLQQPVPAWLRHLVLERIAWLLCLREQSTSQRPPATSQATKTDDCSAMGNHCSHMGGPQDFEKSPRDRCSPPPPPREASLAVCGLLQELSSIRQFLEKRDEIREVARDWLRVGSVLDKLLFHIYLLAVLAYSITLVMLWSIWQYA

[4] = biological target: Glucocorticoid receptor (Homo sapiens) (UniProt P04150); test: GCORTICOID/H Eurofins SafetyScreen44 (BI); conditions: Compound concentration 10.0 uM
[5] = biological target: T2, Muscarinic acetylcholine receptor M1 (Homo sapiens) (UniProt P11229); test: M1/H Eurofins SafetyScreen44 (BI); conditions: Compound concentration 10.0 uM
T2 sequence (whole entry): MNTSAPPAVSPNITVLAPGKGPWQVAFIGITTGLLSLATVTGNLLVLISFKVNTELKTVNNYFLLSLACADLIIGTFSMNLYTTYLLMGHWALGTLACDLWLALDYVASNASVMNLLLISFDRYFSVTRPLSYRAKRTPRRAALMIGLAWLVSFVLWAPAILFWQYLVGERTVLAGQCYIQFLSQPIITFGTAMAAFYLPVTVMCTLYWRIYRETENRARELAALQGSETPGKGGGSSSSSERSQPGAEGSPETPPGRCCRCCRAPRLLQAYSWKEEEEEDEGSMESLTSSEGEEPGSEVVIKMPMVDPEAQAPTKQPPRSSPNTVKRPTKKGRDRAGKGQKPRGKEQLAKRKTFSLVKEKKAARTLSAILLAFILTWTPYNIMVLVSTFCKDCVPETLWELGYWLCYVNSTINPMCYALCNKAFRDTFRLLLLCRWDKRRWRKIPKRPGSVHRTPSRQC

[6] = biological target: T3, Muscarinic acetylcholine receptor M2 (Homo sapiens) (UniProt P08172); test: M2/H Eurofins SafetyScreen44 (BI); conditions: filed as antagonist, Compound concentration 10.0 uM
T3 sequence (whole entry): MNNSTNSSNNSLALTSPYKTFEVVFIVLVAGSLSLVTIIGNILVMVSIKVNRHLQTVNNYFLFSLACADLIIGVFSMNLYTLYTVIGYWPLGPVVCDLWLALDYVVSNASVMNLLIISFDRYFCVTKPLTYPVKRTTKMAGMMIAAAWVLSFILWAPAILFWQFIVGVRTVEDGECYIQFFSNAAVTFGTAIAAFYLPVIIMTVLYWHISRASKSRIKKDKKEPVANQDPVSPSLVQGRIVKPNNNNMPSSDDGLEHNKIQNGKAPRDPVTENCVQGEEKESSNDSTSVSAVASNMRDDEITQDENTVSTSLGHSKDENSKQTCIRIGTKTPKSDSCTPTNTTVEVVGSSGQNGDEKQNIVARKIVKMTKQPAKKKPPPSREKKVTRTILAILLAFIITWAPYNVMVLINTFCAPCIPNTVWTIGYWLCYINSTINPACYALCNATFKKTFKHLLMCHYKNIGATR

[7] = biological target: 5-hydroxytryptamine receptor 5A (Homo sapiens) (UniProt P47898); conditions: Compound concentration 10.0 uM
[8] = biological target: Mu-type opioid receptor (Homo sapiens) (UniProt P35372); conditions: Compound concentration 10.0 uM
[9] = biological target: Kappa-type opioid receptor (Homo sapiens) (UniProt P41145); conditions: Compound concentration 10.0 uM
[10] = biological target: Muscarinic acetylcholine receptor M3 (Homo sapiens, UniProt P20309); conditions: Compound concentration 10.0 uM
[11] = biological target: Adenosine receptor A1 (Homo sapiens) (UniProt P30542); test: A1/HU Eurofins SafetyScreen44 (BI); conditions: Compound concentration 10.0 uM
[12] = biological target: D(2) dopamine receptor (Homo sapiens) (UniProt P14416); test: D2S/HU Eurofins SafetyScreen44 (BI); conditions: Compound concentration 10.0 uM
[13] = biological target: Endothelin-1 receptor (Homo sapiens) (UniProt P25101); test: ETA/HU Eurofins SafetyScreen44 (BI); conditions: Compound concentration 10.0 uM
[14] = biological target: Endothelin receptor type B (Homo sapiens) (UniProt P24530); test: ETB/HUM Eurofins SafetyScreen44 (BI); conditions: Compound concentration 10.0 uM
[15] = biological target: Gamma-aminobutyric acid receptor subunit alpha-1 (Rattus norvegicus) (UniProt P62813); test: GABAA MUSCIMOL CENT Eurofins SafetyScreen44 (BI); conditions: Compound concentration 10.0 uM
hERG (KCNH2) = hERG (KCNH2) (Homo sapiens, UniProt Q12809); test: K+/HERG Eurofins SafetyScreen44 (BI); conditions: compound concentration 10 uM, read-out: % Ctrl
[16] = biological target: Nicotinic acetylcholine receptor alpha-1/beta-1 (Homo sapiens) (UniProt P02708+P11230); test: NACH_BS_N/H Eurofins SafetyScreen44 (BI); type: protein-complex assay; conditions: Compound concentration 10.0 uM
[17] = biological target: Glutamate NMDA receptor (Rattus norvegicus) (UniProt P35439+Q00959+Q00960+Q00961+Q62645+Q8VHN2+Q9R1M7); test: NMDAAGSI/RA Eurofins SafetyScreen44 (BI); conditions: filed as agonist, Compound concentration 10.0 uM
[18] = biological target: P2Y purinoceptor 1 (Rattus norvegicus) (UniProt P49651); test: P2Y/RAT Eurofins SafetyScreen44 (BI); conditions: Compound concentration 10.0 uM
[19] = biological target: Platelet-activating factor receptor (Homo sapiens) (UniProt P25105); test: PAF/H Eurofins SafetyScreen44 (BI); conditions: Compound concentration 10.0 uM
[20] = biological target: Androgen receptor (Rattus norvegicus) (UniProt P15207); test: TESTOST/RA Eurofins SafetyScreen44 (BI); conditions: Compound concentration 10.0 uM
[21] = biological target: Beta-1 adrenergic receptor (Homo sapiens) (UniProt P08588); conditions: Compound concentration 10.0 uM
Beta-1 adrenergic receptor (Homo sapiens), sequence (P08588 whole entry, looked up): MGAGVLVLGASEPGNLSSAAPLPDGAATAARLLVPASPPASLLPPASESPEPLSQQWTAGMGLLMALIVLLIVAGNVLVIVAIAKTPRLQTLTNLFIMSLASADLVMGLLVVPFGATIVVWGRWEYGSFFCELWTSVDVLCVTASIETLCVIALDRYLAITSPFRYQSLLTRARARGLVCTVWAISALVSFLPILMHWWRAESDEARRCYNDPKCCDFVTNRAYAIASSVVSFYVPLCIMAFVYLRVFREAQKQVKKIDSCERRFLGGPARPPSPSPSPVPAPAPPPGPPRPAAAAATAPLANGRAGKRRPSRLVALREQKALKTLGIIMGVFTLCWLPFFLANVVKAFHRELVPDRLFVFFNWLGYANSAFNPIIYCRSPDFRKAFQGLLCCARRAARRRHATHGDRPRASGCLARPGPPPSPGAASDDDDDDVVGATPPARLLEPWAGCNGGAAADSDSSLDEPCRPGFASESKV

Kappa-type opioid receptor (Homo sapiens), sequence (P41145 whole entry): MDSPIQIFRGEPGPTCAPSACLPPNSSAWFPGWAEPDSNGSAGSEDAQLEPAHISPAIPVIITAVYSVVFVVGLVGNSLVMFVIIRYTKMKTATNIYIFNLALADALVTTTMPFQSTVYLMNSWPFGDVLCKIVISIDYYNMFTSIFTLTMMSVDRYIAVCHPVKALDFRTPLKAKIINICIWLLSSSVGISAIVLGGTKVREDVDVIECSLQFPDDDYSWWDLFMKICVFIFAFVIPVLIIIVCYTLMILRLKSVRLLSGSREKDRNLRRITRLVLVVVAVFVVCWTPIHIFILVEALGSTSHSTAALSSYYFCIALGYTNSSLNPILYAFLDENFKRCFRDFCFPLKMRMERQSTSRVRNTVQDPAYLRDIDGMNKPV
Mu-type opioid receptor (Homo sapiens), sequence (P35372 whole entry): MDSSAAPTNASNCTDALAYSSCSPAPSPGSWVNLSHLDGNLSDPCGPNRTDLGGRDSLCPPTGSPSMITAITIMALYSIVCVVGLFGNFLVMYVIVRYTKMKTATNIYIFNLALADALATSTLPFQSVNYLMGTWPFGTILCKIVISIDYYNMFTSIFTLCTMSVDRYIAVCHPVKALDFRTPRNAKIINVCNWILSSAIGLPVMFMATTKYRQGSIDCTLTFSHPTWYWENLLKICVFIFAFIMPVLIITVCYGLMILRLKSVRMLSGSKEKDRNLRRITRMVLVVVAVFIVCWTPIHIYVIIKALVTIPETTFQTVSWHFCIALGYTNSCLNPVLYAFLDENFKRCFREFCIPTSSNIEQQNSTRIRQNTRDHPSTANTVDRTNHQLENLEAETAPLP
5-hydroxytryptamine receptor 5A (Homo sapiens), sequence (P47898 whole entry): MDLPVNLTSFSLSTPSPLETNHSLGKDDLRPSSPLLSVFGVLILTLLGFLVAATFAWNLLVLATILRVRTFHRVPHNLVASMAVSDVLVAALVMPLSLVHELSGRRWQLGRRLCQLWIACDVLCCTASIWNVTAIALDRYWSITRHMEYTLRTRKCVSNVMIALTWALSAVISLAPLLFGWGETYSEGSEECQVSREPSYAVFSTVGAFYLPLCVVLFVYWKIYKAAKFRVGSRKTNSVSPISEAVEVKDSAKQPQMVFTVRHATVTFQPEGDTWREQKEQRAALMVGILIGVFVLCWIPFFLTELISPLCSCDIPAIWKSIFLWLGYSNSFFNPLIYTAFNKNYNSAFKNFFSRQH
Muscarinic acetylcholine receptor M3, sequence (P20309 whole entry, looked up): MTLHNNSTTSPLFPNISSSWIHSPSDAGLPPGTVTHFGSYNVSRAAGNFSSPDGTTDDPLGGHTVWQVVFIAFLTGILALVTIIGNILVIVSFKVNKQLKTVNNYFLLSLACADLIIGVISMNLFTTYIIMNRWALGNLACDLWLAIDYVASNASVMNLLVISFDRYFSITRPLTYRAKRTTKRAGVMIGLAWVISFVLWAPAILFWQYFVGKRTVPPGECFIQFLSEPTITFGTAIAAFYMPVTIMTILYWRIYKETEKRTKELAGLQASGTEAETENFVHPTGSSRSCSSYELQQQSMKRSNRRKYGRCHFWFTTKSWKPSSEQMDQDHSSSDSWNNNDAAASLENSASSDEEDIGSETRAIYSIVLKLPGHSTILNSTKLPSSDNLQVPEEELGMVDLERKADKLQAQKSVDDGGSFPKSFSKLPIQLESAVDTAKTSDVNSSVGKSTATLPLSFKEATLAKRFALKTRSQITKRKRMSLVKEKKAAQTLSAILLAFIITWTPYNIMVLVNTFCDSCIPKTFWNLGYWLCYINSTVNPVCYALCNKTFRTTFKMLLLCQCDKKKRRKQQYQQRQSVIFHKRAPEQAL
Cholecystokinin receptor type A (Homo sapiens), sequence (P32238 whole entry): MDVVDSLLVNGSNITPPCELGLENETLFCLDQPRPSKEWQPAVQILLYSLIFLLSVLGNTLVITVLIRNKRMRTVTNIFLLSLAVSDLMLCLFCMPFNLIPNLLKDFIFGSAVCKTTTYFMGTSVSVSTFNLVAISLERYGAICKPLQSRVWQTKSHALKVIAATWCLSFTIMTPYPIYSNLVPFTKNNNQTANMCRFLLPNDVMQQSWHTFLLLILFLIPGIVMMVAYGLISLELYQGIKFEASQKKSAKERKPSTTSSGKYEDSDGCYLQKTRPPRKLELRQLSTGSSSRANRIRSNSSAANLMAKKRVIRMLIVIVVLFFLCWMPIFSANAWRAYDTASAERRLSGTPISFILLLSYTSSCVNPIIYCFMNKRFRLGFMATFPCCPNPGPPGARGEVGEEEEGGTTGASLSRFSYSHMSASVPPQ
hERG (KCNH2), sequence (Q12809 whole entry): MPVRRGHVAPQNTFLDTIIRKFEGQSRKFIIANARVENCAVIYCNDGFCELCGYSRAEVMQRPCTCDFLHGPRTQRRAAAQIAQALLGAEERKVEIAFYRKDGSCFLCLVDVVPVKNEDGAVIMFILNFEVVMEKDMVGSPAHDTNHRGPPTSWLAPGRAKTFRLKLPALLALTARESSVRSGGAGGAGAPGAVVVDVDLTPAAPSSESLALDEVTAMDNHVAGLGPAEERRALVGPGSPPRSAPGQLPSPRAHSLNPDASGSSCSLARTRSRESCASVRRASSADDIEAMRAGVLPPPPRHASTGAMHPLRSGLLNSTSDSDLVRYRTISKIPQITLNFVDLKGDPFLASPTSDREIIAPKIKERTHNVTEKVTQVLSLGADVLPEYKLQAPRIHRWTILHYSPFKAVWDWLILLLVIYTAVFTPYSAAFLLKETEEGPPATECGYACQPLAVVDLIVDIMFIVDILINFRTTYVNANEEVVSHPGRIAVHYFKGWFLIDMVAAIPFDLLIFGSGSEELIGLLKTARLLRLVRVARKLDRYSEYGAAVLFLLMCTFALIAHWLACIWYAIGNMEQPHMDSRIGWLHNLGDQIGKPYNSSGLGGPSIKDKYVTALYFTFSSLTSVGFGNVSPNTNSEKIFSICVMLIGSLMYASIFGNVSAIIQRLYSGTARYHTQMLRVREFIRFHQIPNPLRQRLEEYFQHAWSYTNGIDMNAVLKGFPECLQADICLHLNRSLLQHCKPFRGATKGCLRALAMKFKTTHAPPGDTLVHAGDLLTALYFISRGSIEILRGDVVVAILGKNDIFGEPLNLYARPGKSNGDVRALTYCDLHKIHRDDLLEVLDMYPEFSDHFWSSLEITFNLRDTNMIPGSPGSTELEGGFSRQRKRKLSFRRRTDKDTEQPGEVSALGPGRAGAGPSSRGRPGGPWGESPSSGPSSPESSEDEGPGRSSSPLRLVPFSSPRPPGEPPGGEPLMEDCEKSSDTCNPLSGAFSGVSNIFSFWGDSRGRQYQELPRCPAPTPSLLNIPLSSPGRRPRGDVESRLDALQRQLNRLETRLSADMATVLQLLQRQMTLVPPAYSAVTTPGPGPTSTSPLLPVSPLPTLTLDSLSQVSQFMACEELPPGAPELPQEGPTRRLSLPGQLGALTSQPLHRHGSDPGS
Endothelin-1 receptor (Homo sapiens), sequence (P25101 whole entry): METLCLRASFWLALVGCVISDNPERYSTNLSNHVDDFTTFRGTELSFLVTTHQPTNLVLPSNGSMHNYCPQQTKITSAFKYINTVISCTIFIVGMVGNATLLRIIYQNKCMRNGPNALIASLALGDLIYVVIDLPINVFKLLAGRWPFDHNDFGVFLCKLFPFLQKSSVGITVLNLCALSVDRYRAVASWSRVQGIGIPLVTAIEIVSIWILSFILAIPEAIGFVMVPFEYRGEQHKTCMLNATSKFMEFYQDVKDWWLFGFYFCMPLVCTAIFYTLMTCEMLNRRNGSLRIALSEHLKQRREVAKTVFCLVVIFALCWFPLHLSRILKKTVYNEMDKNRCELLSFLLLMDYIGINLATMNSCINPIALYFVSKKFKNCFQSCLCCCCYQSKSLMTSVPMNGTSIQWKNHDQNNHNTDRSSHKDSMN
D(2) dopamine receptor (Homo sapiens), sequence (P14416 whole entry): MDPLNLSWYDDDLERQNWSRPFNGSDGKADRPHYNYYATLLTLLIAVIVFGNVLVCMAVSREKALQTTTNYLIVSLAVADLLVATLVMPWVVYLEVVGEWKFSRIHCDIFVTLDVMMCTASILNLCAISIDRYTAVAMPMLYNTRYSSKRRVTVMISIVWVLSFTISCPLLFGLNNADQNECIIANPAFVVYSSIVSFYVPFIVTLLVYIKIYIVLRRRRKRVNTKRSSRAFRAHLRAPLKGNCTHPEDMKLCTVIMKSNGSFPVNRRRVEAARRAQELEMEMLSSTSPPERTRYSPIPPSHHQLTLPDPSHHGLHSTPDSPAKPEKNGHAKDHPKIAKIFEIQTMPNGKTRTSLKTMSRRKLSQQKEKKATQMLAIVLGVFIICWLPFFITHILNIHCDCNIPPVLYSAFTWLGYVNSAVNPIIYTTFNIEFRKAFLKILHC
Adenosine receptor A1 (Homo sapiens), sequence (P30542 whole entry): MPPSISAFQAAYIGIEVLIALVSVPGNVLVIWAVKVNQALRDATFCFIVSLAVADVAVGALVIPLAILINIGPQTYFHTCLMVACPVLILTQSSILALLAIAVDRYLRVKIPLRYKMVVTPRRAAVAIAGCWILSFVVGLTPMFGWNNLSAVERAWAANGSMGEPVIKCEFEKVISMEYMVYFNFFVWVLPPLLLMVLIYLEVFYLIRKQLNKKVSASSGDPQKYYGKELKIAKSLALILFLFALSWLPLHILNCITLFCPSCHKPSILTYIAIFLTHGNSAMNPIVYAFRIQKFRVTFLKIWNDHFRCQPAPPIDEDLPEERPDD

inhibition [7]: 9.98%
inhibition [8]: 13.7%
inhibition [9]: 20.6%
inhibition [10]: -1.57%
Structure (SMILES): COCCCS(=O)(=O)c1cc(C)c(-c2ccc(F)c3c2CC[C@H]3Oc2ccc3c(c2)OC[C@H]3CC(=O)O)c(C)c1
residual activity [1]: 82%
residual activity [2]: 101%
residual activity [3]: 106%
residual activity [4]: 43%
residual activity [5]: 112%
residual activity [6]: 112%

inhibition [7]: 5.48%
inhibition [8]: 15.6%
inhibition [9]: 8.37%
inhibition [21]: 4.62%
inhibition [10]: 68.2%
Structure (SMILES): Cc1cc(OCCC(C)(C)O)cc(C)c1-c1ccc(F)c2c1CC[C@H]2Oc1ccc2c(c1)OC[C@H]2CC(=O)O
residual activity [1]: 103%
residual activity [11]: 68%
residual activity [12]: 100%
residual activity [13]: 91%
residual activity [14]: 63%
residual activity [15]: 87%
activity at 10 µM (hERG (KCNH2)): 80% (not active)
residual activity [16]: 84%
residual activity [17]: 89%
residual activity [18]: 87%
residual activity [19]: 97%
residual activity [20]: 75%
